# Results as given in paper PMC9865890, “N-Derivatives of (Z)-Methyl 3-(4-Oxo-2-thioxothiazolidin-5-ylidene)methyl)-1H-indole-2-carboxylates as Antimicrobial Agents—In Silico and In Vitro Evaluation” (Pharmaceuticals, 2023).
# Read-outs that look alike come from different tables or passages of the source.
# Experiments:
# P. aeruginosa = experiment: Antibacterial microdilution (MIC/MBC); format: cell-based; settings: Pseudomonas aeruginosa, P.a. (P. aeruginosa); for MIC: read-out: MIC
# Method: (§1) The synthesized compounds (Table 1) were evaluated for their antibacterial activity against a panel of eight species using a microdilution method with ampicillin and streptomycin as reference drugs. […] The order of activity can be presented as: 8 > 11 > 2 > 1 > 12 > 3 > 17 > 7 > 5 > 13 > 14 > 16 > 9 > 4 = 6 > 15 > 10. […] Cloacae. […] The most sensitive bacteria appeared to be En. cloacae, while E. coli was the most resistant one, followed by M. flavus.
# (§2) The following Gram-negative bacteria: Escherichia coli (ATCC 35210), Enterobacter cloacae (clinical isolate), Salmonella typhimurium (ATCC 13311), as well as Gram-positive bacteria: Listeria monocytogenes (NCTC 7973), Bacillus cereus (clinical isolate), and Staphylococcus aureus (ATCC 6538) were used. The organisms were obtained from the Mycological Laboratory, Department of Plant Physiology, Institute for Biological Research “Siniša Stankovic”, Belgrade, Serbia. The minimum inhibitory (MIC) and minimum bactericidal (MBC) concentrations were determined by the modified microdilution method, as previously reported.
# [1] = system: Bacillus cereus (clinical isolate); experiment: Antibacterial microdilution (MIC/MBC); format: cell-based; settings: B.c. (B. cereus)
# Method: as §1, §2
# [2] = system: Listeria monocytogenes (NCTC 7973); experiment: Antibacterial microdilution (MIC/MBC); format: cell-based; settings: Listeria monocytogenes, NCTC7973, L.m. (L. monocytogenes); for MIC: read-out: MIC
# Method: as §1, §2
# M. flavus = experiment: Antibacterial microdilution (MIC/MBC); format: cell-based; settings: Micrococcus flavus; M.f. (M. flavus)
# Method: as §1, §2
# [3] = system: Escherichia coli (ATCC 35210); experiment: Antibacterial microdilution (MIC/MBC); format: cell-based; settings: Escherichia coli, ATCC35210, E. coli; for MIC: read-out: MIC
# Method: as §1, §2
# [4] = system: Staphylococcus aureus (ATCC 6538); experiment: Antibacterial microdilution (MIC/MBC); format: cell-based; settings: S.a. (S. aureus)
# Method: as §1, §2
# [5] = system: Enterobacter cloacae (clinical isolate); experiment: Antibacterial microdilution (MIC/MBC); format: cell-based; settings: Enterobacter cloacae, En.cl (En. cloacae); for MIC: read-out: MIC
# Method: as §1, §2
# [6] = system: Salmonella typhimurium (ATCC 13311); experiment: Antibacterial microdilution (MIC/MBC); format: cell-based; settings: S.t. (S. typhimurium)
# Method: as §1, §2
# [7] = system: Aspergillus niger (ATCC 6275); experiment: Antifungal bioassay (MIC/MFC); format: cell-based; settings: ATCC6275, A.n. (A. niger)
# Method: (§3) For the antifungal bioassays, six fungi were used: […] The organisms were obtained from the Mycological Laboratory, Department of Plant Physiology, Institute for Biological Research “Siniša Stankovic”, Belgrade, Serbia. All experiments were performed in duplicate.
# [8] = system: Aspergillus fumigatus (ATCC 1022); experiment: Antifungal bioassay (MIC/MFC); format: cell-based; settings: ATCC1022, A.f. (A. fumigatus)
# Method: as §3
# A. ochraceus = experiment: Antifungal bioassay (MIC/MFC); format: cell-based; settings: Aspergillus ochraceus, A.o. (A. ochraceus); for MIC: read-out: MIC
# Method: as §3
# [9] = system: Aspergillus versicolor (ATCC 11730); experiment: Antifungal bioassay (MIC/MFC); format: cell-based; settings: ATCC11730, A.v. (A. versicolor)
# Method: as §3
# P. ochrochloron = experiment: Antifungal bioassay (MIC/MFC); format: cell-based; settings: Penicillium ochrochloron; for MFC: P.o. (P. ochrochloron); for MIC: P.o. (P. ochrochloron; text: P. ochramensis), read-out: MIC
# Method: as §3
# [10] = system: Trichoderma viride (IAM 5061); experiment: Antifungal bioassay (MIC/MFC); format: cell-based; settings: T.v. (T. viride)
# Method: as §3
# [11] = system: Penicillium funiculosum (ATCC 36839); experiment: Antifungal bioassay (MIC/MFC); format: cell-based; settings: Talaromyces funiculosus, ATCC36839; P.f. (P. funiculosum)
# Method: as §3
# [12] = system: Penicillium verrucosum var. cyclopium (food isolate); experiment: Antifungal bioassay (MIC/MFC); format: cell-based
# Method: For the antifungal bioassays, six fungi were used: Aspergillus niger (ATCC 6275), Aspergillus fumigatus (ATCC 1022), Aspergillus versicolor (ATCC 11730), Penicillium funiculosum (ATCC 36839), Trichoderma viride (IAM 5061), and Penicillium verrucosum var. cyclopium (food isolate). The organisms were obtained from the Mycological Laboratory, Department of Plant Physiology, Institute for Biological Research “Siniša Stankovic”, Belgrade, Serbia. All experiments were performed in duplicate.
# [13] = Staphylococcus aureus, ATCC6538
# [14] = Staphylococcus aureus, ATCC6538, read-out: MIC
# [15] = Salmonella enterica, read-out: MIC
# [16] = Trichoderma viride, IAM5061, read-out: MIC
smiles,measurement,setting,value
"CC1(C)S[C@@H]2[C@H](NC(=O)[C@H](N)c3ccccc3)C(=O)N2[C@H]1C(=O)O [Ampicillin, reference compound]",MBC,P. aeruginosa,500 ± 100 µg/mL
same,MIC,P. aeruginosa,300 ± 30 µg/mL
same,MBC,[1]; Bacillus cereus,25 µg/mL
same,MIC,"[1]; Bacillus cereus, read-out: MIC",6 ± 3 µg/mL
same,MBC,[2],300 ± 30 µg/mL
same,MIC,[2],150 ± 30 µg/mL
same,MBC,M. flavus,500 ± 100 µg/mL
same,MIC,M. flavus,250 ± 90 µg/mL
same,MBC,[3],200 µg/mL
same,MIC,[3],100 ± 50 µg/mL
same,MBC,[4]; [13],150 ± 50 µg/mL
same,MIC,[4]; [14],100 ± 50 µg/mL
same,MBC,[5],500 ± 100 µg/mL
same,MIC,[5],250 ± 90 µg/mL
same,MBC,[6]; Salmonella enterica,200 ± 9 µg/mL
same,MIC,[6]; [15],150 ± 30 µg/mL
"c1ccc(-c2ccc(C(c3ccccc3)n3ccnc3)cc2)cc1 (stereo not shown) [Bifonazole, reference compound]",MFC,[7],200 ± 10 µg/mL
same,MIC,[7],150 ± 50 µg/mL
same,MFC,[8],200 ± 10 µg/mL
same,MIC,[8],150 ± 50 µg/mL
same,MFC,A. ochraceus,200 ± 10 µg/mL
same,MIC,A. ochraceus,150 ± 50 µg/mL
same,MFC,[9],200 ± 10 µg/mL
same,MIC,[9],100 ± 2 µg/mL
same,MFC,P. ochrochloron,250 ± 50 µg/mL
same,MIC,P. ochrochloron,200 ± 10 µg/mL
same,MFC,"[10]; Trichoderma viride, IAM5061",200 ± 10 µg/mL
same,MIC,[10]; [16],150 ± 50 µg/mL
same,MFC,[11],250 ± 50 µg/mL
same,MIC,[11],200 ± 10 µg/mL
same,MFC,"[12]; P.v.c. (P. cyclpoium var verucosum), read-out: MFC",200 ± 10 µg/mL
same,MIC,"[12]; P.v.c. (P. cyclpoium var verucosum), read-out: MIC",100 ± 9 µg/mL
"COC(=O)c1[nH]c2ccccc2c1/C=C1\SC(=S)N(c2cccc(O)c2)C1=O [Compound 3, (Z)-methyl 3-((3-(3-hydroxyphenyl)-4-oxo-2-thioxothiazolidin-5-ylidene)methyl)-1H-indole-2-carboxylate]",melting point,,245 to 247 °C
same,MBC,P. aeruginosa,60 ± 6 µg/mL
same,MIC,P. aeruginosa,30 ± 10 µg/mL
same,MIC,[1],15 ± 9 µg/mL
same,MBC,[1]; Bacillus cereus,30 ± 10 µg/mL
same,MIC,"[1]; Bacillus cereus, read-out: MIC",15 µg/mL
same,MBC,[2],60 ± 6 µg/mL
same,MIC,[2],30 ± 10 µg/mL
same,MBC,M. flavus,60 ± 6 µg/mL
same,MIC,M. flavus,45 ± 3 µg/mL
same,MBC,[3],30 ± 10 µg/mL
same,MIC,[3],22 ± 5 µg/mL
same,MIC,[4],15 ± 9 µg/mL
same,MBC,[4]; [13],30 ± 10 µg/mL
same,MIC,[4]; [14],15 µg/mL
same,MBC,[5],30 ± 10 µg/mL
same,MIC,[5],15 ± 9 µg/mL
same,MIC,[6],15 ± 9 µg/mL
same,MBC,[6]; Salmonella enterica,30 ± 10 µg/mL
same,MIC,[6]; [15],15 µg/mL
same,MFC,[8],60 ± 6 µg/mL
same,MIC,[8],30 ± 10 µg/mL
same,MFC,A. ochraceus,15 ± 3 µg/mL
same,MIC,A. ochraceus,8 ± 0.6 µg/mL
same,MFC,[9],15 ± 3 µg/mL
same,MIC,[9],8 ± 0.6 µg/mL
same,MFC,P. ochrochloron,15 ± 3 µg/mL
same,MIC,P. ochrochloron,8 ± 0.6 µg/mL
same,MIC,[10],4 ± 1 µg/mL
same,MFC,"[10]; Trichoderma viride, IAM5061",8 ± 0.6 µg/mL
same,MIC,[10]; [16],4 µg/mL
same,MFC,[11],15 ± 3 µg/mL
same,MIC,[11],8 ± 0.6 µg/mL
same,MFC,[12],30 ± 10 µg/mL
same,MIC,[12],15 ± 3 µg/mL
